Data published in patent US11485974B2, “Method of fixing and expressing physiologically active substance” (STELIC INSTITUTE & CO., priority 2007, dated 2022).

Columns and labels:
[1] = Retention of iopamidol injected into the submucous tissue of rat large intestine, X-ray photography and CT scanning; assay type: in vivo, Wistar rats; settings: normal rats, 20 μl injected into submucous tissue of the left colon, after one hour
Procedure: Next, the retention of physiologically active substances in the submucous tissue of normal rats was analyzed by diagnostic imaging using X-ray and CT, which are routinely used clinically. Twelve-week-old male Wistar rats were anesthetized with Nembutal, and then an ultrathin endoscope for humans was inserted into the large intestines and 20 μl of iopamidol, a contrast medium, was endoscopically injected alone into the submucous tissue of the left colon using a local injection needle.
X-ray photography and CT scanning was carried out after one hour.

[2] = biological target: T1, ribonuclease (RNase A) (Bos taurus, UniProt P61823); test: Stability test for GalNAc4S-6ST siRNA at 37° C., agarose gel electrophoresis; assay type: in vitro ADME
T1 construct: purchased SIGMA
T1 sequence (P61823 27-150): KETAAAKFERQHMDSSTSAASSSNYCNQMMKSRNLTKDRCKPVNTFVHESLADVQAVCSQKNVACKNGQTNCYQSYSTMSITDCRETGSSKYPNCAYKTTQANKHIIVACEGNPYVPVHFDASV
Procedure: In this Example, GalNAc4S-6ST siRNA, the same substance used in Example 5, was assessed for its stability. First, test solutions were prepared by adding 1 μg of GalNAc4S-6ST siRNA to 200 μl of sterile phosphate buffer or 0.1% atelocollagen and stirring the mixtures at 4° C. for 20 minutes. 0.1% atelocollagen was prepared by combining 1% atelocollagen (Koken) with ten volumes of sterile phosphate buffer and stirring the mixture at 4° C. for 16 hours. Then, 40 μg of a ribonuclease (RNase A; SIGMA) was added to the prepared test solutions of GalNAc4S-6ST siRNA, and the mixtures were incubated to react at 37° C. The reaction time was 5, 15, 30, 45, or 60 minutes. 500 μl of RNA iso (Takara Bio) was added to the test solutions after reaction. The mixtures were incubated on ice for five minutes, and centrifuged at 14,000 rpm for 15 minutes. The resulting supernatants were collected, and 500 μl of isopropanol and 1 μl of glycogen (Invitrogen) were added thereto. The mixtures were incubated for 15 minutes, and centrifuged at 14,000 rpm for 15 minutes. The supernatants were discarded, and the pellets were saved. 1 ml of 75% ethanol was added to the pellets, and the mixtures were centrifuged at 14,000 rpm for 15 minutes. After this step was repeated twice, the pellets were dried and dissolved in 25 μl of injection solvent (Otsuka Pharmaceutical). 10 μl each of the solutions were combined with 2 μl of Loading Dye (Invitrogen). 3.5% agarose gel was prepared using UltraPure Agarose (Invitrogen), and the samples were electrophoresed in a Mupid-2 plus (ADVANCE) at 100 V for 20 minutes. After electrophoresis, the gel was shaken for 20 minutes in a stain solution prepared by 10,000 times diluting Ethidium Bromide (Invitrogen) with 1×LoTE (composition: 3 mM Tris-HCl (pH 7.5) (Invitrogen), 0.2 mM EDTA (pH 7.5) (Sigma Aldrich Japan)). The gel was photographed with Fluourchem (Innotech) and analyzed.

[3] = system: DSS-induced colitis model mice; test: Histology (hematoxylin-eosin) of large intestine in DSS colitis model mice; assay type: in vivo, C57BL/6J mice; settings: HE-stained sections of large intestine
Procedure: (§1) A colitis model mice was prepared by allowing C57BL/6J mice (female, six weeks old; CLEA Japan Inc.) to freely drink […] containing 3% dextran sulfate sodium (DSS; Wako Pure Chemical Industries Inc.) for five days. This DSS-induced colitis model has excellent reproducibility, and is thus used widely as a standard experimental model for inflammatory bowel diseases such as mouse ulcerative colitis and Crohn's disease (Sasaki N, J Inflamm. 2005 2: 13; as a review, Pucilowska J B et al. Am J Physiol Gastroenterol Liver Physiol. 279: G653-G659, 2000).
(§2) The same GalNAc4S-6ST siRNA (0.3 μg/head) as used in Example 5 was injected to the submucous tissue of mouse large intestine, while the mice were allowed to drink water containing 3% DSS. The control groups used were: a group injected with scramble siRNA (“BLOCK-iT Fluorescent Oligo (Invitrogen)” in Example 4) and an untreated group in which mice were allowed to drink DSS water only. The body weight and disease activity index (DAI) score (Kihara M, Gut. 2003 52: 713-9) were recorded for five days while the mice were allowed to drink water containing 3% DDS. Then, the mice were sacrificed on the fifth day.
Next, tissue sections were prepared from collected large intestines and stained with hematoxylin-eosin. The resulting histological images were analyzed (FIG. 10).

[4] = system: GalNAc4S-6ST gene expression; test: Gene knockdown by siRNA administered into the submucous tissue of large intestine in DSS colitis model mice, quantitative PCR; assay type: in vivo, mouse; settings: 0.3 μg/head into submucous tissue of large intestine, day 5
Procedure: as §1
The same GalNAc4S-6ST siRNA (0.3 μg/head) as used in Example 5 was injected to the submucous tissue of mouse large intestine, while the mice were allowed to drink water containing 3% DSS. […] The body weight and disease activity index (DAI) score (Kihara M, Gut. 2003 52: 713-9) were recorded for five days while the mice were allowed to drink water containing 3% DDS. […]
1 ml of RNA iso (Takara Bio) was added to 50 mg each of excised organs (large intestine and kidney). […] The RNA concentrations of extracted samples in UV plates (Corning Costar) were determined using a plate reader (POWER Wave XS; BIO-TEK).
Next, reverse transcription reaction (cDNA synthesis) is conducted by the following procedure. […] For quantitative PCR, SYBR Premix Kit (TAKARA) and Real-time PCR thermal cycler DICE (TAKARA) were used. […]

[5] = system: DSS-induced colitis model mice; test: Length of the large intestine (colonic contraction) in DSS colitis model mice; assay type: in vivo, C57BL/6J mice; settings: day five, p<0.05, t test
Procedure: as §1, §2
Next, the length of the large intestine was measured after sacrificing mice on day five. […] The length of the large intestine is a crucial indicator that reflects the intestinal fibrosis.

[6] = system: DSS-induced colitis model mice; test: Disease activity index (DAI: stool consistency, fecal occult blood) in DSS colitis model mice; assay type: in vivo, C57BL/6J mice; settings: compared to the control group
Procedure: as §1
The same GalNAc4S-6ST siRNA (0.3 μg/head) as used in Example 5 was injected to the submucous tissue of mouse large intestine, while the mice were allowed to drink water containing 3% DSS. The control groups used were: a group injected with scramble siRNA (“BLOCK-iT Fluorescent Oligo (Invitrogen)” in Example 4) and an untreated group in which mice were allowed to drink DSS water only. The body weight and disease activity index (DAI) score (Kihara M, Gut. 2003 52: 713-9) were recorded for five days while the mice were allowed to drink water containing 3% DDS. […]
The colitis activity index (DAI) was analyzed by the same method described in Example 7.
The first day (day 0) of feeding with DSS water is defined as 1, and the stool consistency and fecal occult blood in each mouse were recorded. […]

[7] = Nucleic acid kinetics in the submucous tissue of mouse large intestine, siRNA concentration by ELISA; assay type: in vivo; settings: mice, 0.3 μg/10 μl at three sites
Procedure: Next, in order to also confirm the retention of injected siRNA in the submucous tissue of the large intestine by biochemical methods, the concentration of siRNA in the large intestine was determined by using the ELISA method for direct quantitation of siRNA according to a published report (Rosie Z et al. Analytical Biochem. 304: 19-25, 2002). The nucleotide sequences of GalNac 4S-6ST siRNA used in this Example are shown below, but the sequences are not limited to the example shown herein.
GalNAc4S-6ST siRNA (0.3 μg/10 μl) was injected at three sites to the submucous tissue of large intestine in eight-week-old female C57BL/6.1 mice by the same method described in Example 3. The mice were sacrificed 0.5, 3, 6, or 24 hours after injection to prepare histological samples of the large intestine. The siRNA concentrations were determined by the ELISA methods.
1 μg/ml siRNA before injection was used as a positive control without any additional treatment.

[8] = presence of ribonuclease (RNase A), phosphate buffer

Compound	Retention at the injection site, CT images [1]	Retention at the injection site, X-ray images [1]	Stability (gel band) ([2]; absence of ribonuclease, sterile phosphate buffer, after 60 minutes)	Time after which the band disappeared [2, 8] [min]	Time point at which siRNA degradation was observed [2, 8] [min]	Gel band ([2]; siRNA embedded in 0.1% atelocollagen, ribonuclease (RNase A), after 30 minutes)	Epithelial disruption, infiltration of inflammatory cells into lamina propria and submucosa, and thickening of muscular layer [3]	Expression of GalNAc4S-6ST in the kidney [4]	Expression of GalNAc4S-6ST in the large intestine [4]	Colonic contraction (length of the large intestine) [5]	DAI score (stool consistency and fecal occult blood) [6]	siRNA concentration in the large intestine ([7]; 0.5 hour after injection)	siRNA concentration in the large intestine ([7]; 24 hours after injection)	siRNA concentration in the large intestine ([7]; three hours after injection)
C[C@H](O)C(=O)Nc1c(I)c(C(=O)NC(CO)CO)c(I)c(C(=O)NC(CO)CO)c1I [iopamidol, N,N′-Bis[2-hydroxy-1-(hydroxymethyl)ethyl]-5-[(2S)-2-hydroxypropanoylamino]-2,4,6-triiodoisophthalamide]	retained specifically at the injection sites and did not spread to other slices	retained in the submucous tissue of the colon without intraperitoneal leakage and transfer to other sections												
GalNAc4S-6ST siRNA: siRNA of SEQ ID NOs: 1 and 2 against GalNAc4S-6ST (Gene Bank accession number NM_015892), Hokkaido System Science (chain 1 GGAGCAGAGCAAGAUGAAUACAAUCAG; chain 2 GAUUGUAUUCAUCUUGCUCUGCUCCAU; listed as RNA, further chemistry not given here)			relatively stable	30	15	faint but detectable	markedly suppressed	remained unchanged	significantly suppressed the increased expression	significantly suppressed	lower	retained at a very high concentration	continually remained retained	decreased by half
